In ChEMBL document CHEMBL1201862, “PubChem BioAssay data set” (2004):
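How tested: cells in 96-well plates exposed to compound for 48 hours at five concentrations. Abbreviation: GI50, concentration required for 50% inhibition of growth.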 Activity calls are given as the source filed them. No stated cut-off is given here; in the data, active = GI50 up to about 1.1 µM and inactive = higher. Positions of bridges follow the written chain, without caps; N, C: chain ends. Non-standard residues stand in square brackets, D forms with d. Residues, ends and D or L forms follow the SMILES beside them. Aib = CC(C)(N)C(=O)O; βAla = NCCC(=O)O

Key:
Experiment in all cases: growth of human tumour cells (NCI), 48 h
SF-295 = test system: SF-295
KM12 = test system: KM12
EKVX = test system: EKVX
UACC-257 = test system: UACC-257
NCI-H460 = test system: NCI-H460
SK-OV-3 = test system: SK-OV-3
OVCAR-5 = test system: OVCAR-5
ACHN = test system: ACHN
NCI/ADR-RES = test system: NCI/ADR-RES
LOX IMVI = test system: LOX IMVI
DU-145 = test system: DU-145
SN12C = test system: SN12C
A498 = test system: A498
M14 = test system: M14
CAKI-1 = test system: CAKI-1
OVCAR-8 = test system: OVCAR-8
MCF7 = test system: MCF7
COLO 205 = test system: COLO 205
T47D = test system: T47D
NCI-H226 = test system: NCI-H226

Measured: GI50

CC(C)(C)c1c2c(c(C(C)(C)C)c3c1OCN(Cc1ccccc1)C3)OCN(Cc1ccccc1)C2
inactive: SF-295 15.2 µM | KM12 21.3 µM | EKVX 12.7 µM | UACC-257 12.8 µM | NCI-H460 15.1 µM | SK-OV-3 22.6 µM | OVCAR-5 13.4 µM | ACHN 17.8 µM | NCI/ADR-RES 19.6 µM | LOX IMVI 16.3 µM | DU-145 22.6 µM | SN12C 15.4 µM | A498 6 µM | M14 14.2 µM | CAKI-1 33.2 µM | OVCAR-8 26.2 µM | MCF7 11 µM | COLO 205 13.7 µM | T47D 31.7 µM

O=c1[nH]c2cc(C(F)(F)F)ccc2nc1Cc1ccccc1
inactive: SF-295 40.6 µM | KM12 > 100 µM | NCI-H226 > 100 µM | EKVX > 100 µM | UACC-257 > 100 µM | NCI-H460 > 100 µM | SK-OV-3 33 µM | ACHN 52.6 µM | NCI/ADR-RES 67 µM | LOX IMVI > 100 µM | DU-145 > 100 µM | A498 85.9 µM | M14 > 100 µM | CAKI-1 60.4 µM | OVCAR-8 80.2 µM | MCF7 > 100 µM | COLO 205 > 100 µM | T47D 38.5 µM

Cc1cn(C2CC(O)C(Cn3cc(Cn4ncc(=O)[nH]c4=O)nn3)O2)c(=O)[nH]c1=O (configuration not stated)
inactive: SF-295 > 100 µM | KM12 > 100 µM | NCI-H226 > 100 µM | EKVX > 100 µM | UACC-257 > 100 µM | SK-OV-3 > 100 µM | OVCAR-5 > 100 µM | ACHN > 100 µM | NCI/ADR-RES > 100 µM | LOX IMVI > 100 µM | DU-145 > 100 µM | SN12C > 100 µM | A498 > 100 µM | M14 > 100 µM | CAKI-1 > 100 µM | OVCAR-8 > 100 µM | MCF7 > 100 µM | COLO 205 > 100 µM | T47D > 100 µM

C=CCc1cccc2cc(C(=O)NCc3ccccc3)c(=N)oc12
inactive: KM12 34.4 µM | NCI-H226 24.2 µM | EKVX 26.1 µM | UACC-257 89.3 µM | NCI-H460 28.5 µM | SK-OV-3 46.2 µM | OVCAR-5 54 µM | ACHN 19.9 µM | NCI/ADR-RES 34.2 µM | LOX IMVI 42.7 µM | DU-145 37.1 µM | SN12C 27.6 µM | A498 23.4 µM | M14 40.6 µM | CAKI-1 37 µM | OVCAR-8 43.9 µM | MCF7 47.8 µM | COLO 205 40.6 µM | T47D 24.5 µM

Cc1ccc(S(=O)(=O)N2CCSCCSCCSCCN(S(=O)(=O)c3ccc(C)cc3)CC2)cc1
inactive: SF-295 > 100 µM | KM12 > 100 µM | NCI-H226 > 100 µM | EKVX > 100 µM | UACC-257 > 100 µM | NCI-H460 > 100 µM | SK-OV-3 > 100 µM | OVCAR-5 > 100 µM | ACHN > 100 µM | NCI/ADR-RES > 100 µM | DU-145 > 100 µM | SN12C > 100 µM | A498 > 100 µM | M14 > 100 µM | OVCAR-8 > 100 µM | MCF7 > 100 µM | COLO 205 > 100 µM | T47D > 100 µM

CCCCC/C(C=O)=C\c1ccccc1
inactive: SF-295 > 100 µM | KM12 > 100 µM | NCI-H226 > 100 µM | EKVX > 100 µM | UACC-257 > 100 µM | NCI-H460 > 100 µM | SK-OV-3 > 100 µM | ACHN > 100 µM | NCI/ADR-RES > 100 µM | LOX IMVI > 100 µM | DU-145 > 100 µM | A498 > 100 µM | M14 > 100 µM | CAKI-1 > 100 µM | OVCAR-8 > 100 µM | MCF7 > 100 µM | COLO 205 > 100 µM | T47D > 100 µM

COC(=O)c1ccccc1C1CN=NC12Cc1cccc(C)c1C2=O (configuration not stated)
inactive: SF-295 34.4 µM | KM12 26.8 µM | NCI-H226 49.7 µM | EKVX 65.6 µM | UACC-257 37.3 µM | NCI-H460 88.1 µM | SK-OV-3 > 100 µM | OVCAR-5 > 100 µM | ACHN 35.3 µM | NCI/ADR-RES 9.84 µM | LOX IMVI 55 µM | DU-145 > 100 µM | SN12C 36.1 µM | A498 54.6 µM | CAKI-1 46.1 µM | OVCAR-8 42.4 µM | MCF7 43 µM | COLO 205 > 10 µM | T47D 16.6 µM

COc1ccc2c(c1)C1Oc3ccccc3CC1(O)CO2 (configuration not stated)
inactive: SF-295 > 100 µM | KM12 > 100 µM | NCI-H226 > 100 µM | EKVX > 100 µM | UACC-257 > 100 µM | SK-OV-3 > 100 µM | OVCAR-5 > 100 µM | ACHN > 100 µM | NCI/ADR-RES > 100 µM | LOX IMVI > 100 µM | DU-145 > 100 µM | SN12C > 100 µM | A498 > 100 µM | M14 > 100 µM | CAKI-1 > 100 µM | OVCAR-8 > 100 µM | MCF7 > 100 µM | COLO 205 > 100 µM | T47D > 100 µM

CS/C(=N\S(=O)(=O)c1ccc(Cl)cc1)NCCCCN/C(=N/S(=O)(=O)c1ccc(Cl)cc1)SC
inactive: SF-295 > 100 µM | EKVX > 100 µM | UACC-257 > 100 µM | NCI-H460 > 100 µM | OVCAR-5 > 100 µM | ACHN > 100 µM | NCI/ADR-RES > 100 µM | LOX IMVI > 100 µM | DU-145 > 100 µM | SN12C > 100 µM | A498 32.6 µM | M14 > 100 µM | CAKI-1 > 100 µM | OVCAR-8 75.3 µM | MCF7 > 100 µM | COLO 205 > 100 µM | T47D > 100 µM

Cc1nnc(N)nc1/C=C\c1ccc(N(C)C)cc1
inactive: SF-295 > 41.2 µM | KM12 12.3 µM | NCI-H226 16.1 µM | EKVX 29.6 µM | UACC-257 22.5 µM | NCI-H460 9.66 µM | SK-OV-3 > 29.4 µM | OVCAR-5 > 86.3 µM | ACHN 15 µM | NCI/ADR-RES 12.4 µM | LOX IMVI 4.88 µM | DU-145 > 66.2 µM | SN12C > 100 µM | A498 16.6 µM | M14 27 µM | OVCAR-8 22.9 µM | MCF7 3.85 µM | COLO 205 > 29.7 µM | T47D > 24.6 µM

C[N+]1(C)C(c2ccccc2)C(=O)O[B@-]1(F)c1ccccc1 (some centres not stated)
inactive: SF-295 > 100 µM | NCI-H226 > 100 µM | EKVX > 100 µM | UACC-257 > 100 µM | NCI-H460 > 100 µM | SK-OV-3 > 100 µM | OVCAR-5 > 100 µM | ACHN > 100 µM | NCI/ADR-RES > 100 µM | LOX IMVI > 100 µM | DU-145 > 100 µM | SN12C > 100 µM | A498 25.7 µM | M14 > 100 µM | OVCAR-8 > 100 µM | MCF7 > 100 µM | COLO 205 > 100 µM | T47D > 100 µM

CN(C)CC[N+](C)(C)[BH2-]C(O)O
inactive: SF-295 > 100 µM | KM12 > 100 µM | EKVX > 100 µM | UACC-257 > 100 µM | NCI-H460 > 100 µM | OVCAR-5 > 100 µM | ACHN > 100 µM | NCI/ADR-RES > 100 µM | LOX IMVI > 100 µM | DU-145 > 100 µM | SN12C > 100 µM | A498 > 100 µM | M14 > 100 µM | CAKI-1 > 100 µM | MCF7 > 100 µM | COLO 205 > 100 µM | T47D > 100 µM

CC(C)[C@@H]1NC(=O)[C@@H]2N=C(O[C@H]2C)[C@H](C(C)C)NC(=O)C2N=C1O[C@H]2C
inactive: SF-295 > 100 µM | KM12 > 100 µM | NCI-H226 > 100 µM | EKVX > 100 µM | UACC-257 > 100 µM | NCI-H460 > 100 µM | OVCAR-5 > 100 µM | ACHN > 100 µM | NCI/ADR-RES > 100 µM | LOX IMVI > 100 µM | DU-145 > 100 µM | SN12C > 100 µM | A498 > 100 µM | M14 > 100 µM | CAKI-1 > 100 µM | OVCAR-8 > 100 µM | MCF7 > 100 µM | COLO 205 > 100 µM | T47D > 100 µM

CC1(C)NC(=O)C(NC(=O)C(N)CC(=O)O)CCCCNC(=O)CCNC1=O (configuration not stated) (H-DK[Aib][βAla]; lactam 2-C; configuration not given here)
inactive: SF-295 > 100 µM | KM12 > 100 µM | NCI-H226 > 100 µM | EKVX > 100 µM | UACC-257 > 100 µM | NCI-H460 > 100 µM | SK-OV-3 > 100 µM | OVCAR-5 > 100 µM | ACHN > 100 µM | NCI/ADR-RES > 100 µM | LOX IMVI > 100 µM | DU-145 > 100 µM | A498 > 100 µM | M14 > 100 µM | CAKI-1 > 100 µM | OVCAR-8 > 100 µM | MCF7 > 100 µM | COLO 205 > 100 µM | T47D > 100 µM

C[C@@H]1C[C@@H]2OC(=O)[C@]3(C)[C@H]2[C@@H](OC3(C)O)[C@]2(C)C(=O)C=C[C@@H]12 (some centres not stated) [TENULIN]
inactive: SF-295 > 100 µM | KM12 23.6 µM | NCI-H226 74 µM | EKVX 20.2 µM | UACC-257 18 µM | SK-OV-3 > 100 µM | OVCAR-5 19.9 µM | ACHN 19.5 µM | NCI/ADR-RES > 100 µM | LOX IMVI 19.2 µM | DU-145 39.6 µM | SN12C 18.3 µM | A498 22.6 µM | M14 20.6 µM | CAKI-1 22.1 µM | OVCAR-8 32.4 µM | MCF7 15.7 µM | COLO 205 14.2 µM | T47D 19 µM
